Reference: US20100166772A1, “ANTIGEN-BINDING PROTEINS TARGETING S. AUREUS ORF0657n” (priority 2007, published 2010)
Values joined by “and” are separate entries in the source; they are usually repeats but may differ in a detail not shown here. Identical values can stand only once.

System: S. aureus Becker
Experiment: Combination treatment vancomycin and mAb in cannulated rats, catheter bacteria load
Assay type: in vivo
Settings: for Catheter CFU Exp#1 / Catheter CFU Exp#2: 24 hours
Experimental: Cannulated rats were given vancomycin (20 mpk) sub. cu. at 1 hour (1 H) prior to iv challenge with 2−4×10^9 CFU of S. aureus Becker. At 1 H post challenge, the rats were injected with 6 mg/rat of either the mAb CS-D6, an isotype control mAb 20C2HA, or PBS. At 24 hours post challenge, the animals were sacrificed, the jugular vein catheters harvested and evaluated for the bacteria load on the catheter. Evaluation of catheters was performed by placement in selective broth medium, and outgrowth on the Piccolo incubation system. Outgrowth was compared to standard curves of S. aureus growth under the same conditions to calculate the number of CFU on the experimental catheters. In the first set of experiments (Table 15), small numbers of animals were used to test the system. In the second set of experiments (Table 16), larger numbers of rats were used. […] This model was designed to simulate a clinical situation in which a patient is undergoing surgery or other invasive procedure, and getting an empiric or prophylactic antibiotic. In the model, the mAb was injected after bacteria exposure, simulating adjunctive mAb treatment for infection during surgery.

[1] = Table 15, individual rats, vancomycin 20 mpk sub. cu. 1 H prior, 6 mg/rat mAb 1 H post challenge
[2] = Table 16, individual rats, larger numbers of rats, vancomycin 20 mpk, 6 mg/rat mAb

CN[C@H](CC(C)C)C(=O)N[C@H]1C(=O)N[C@@H](CC(N)=O)C(=O)N[C@H]2C(=O)N[C@H]3C(=O)N[C@H](C(=O)N[C@H](C(=O)O)c4cc(O)cc(O)c4-c4cc3ccc4O)[C@H](O)c3ccc(c(Cl)c3)Oc3cc2cc(c3O[C@@H]2O[C@H](CO)[C@@H](O)[C@H](O)[C@H]2O[C@H]2C[C@](C)(N)[C@H](O)[C@H](C)O2)Oc2ccc(cc2Cl)[C@H]1O [Vancomycin + PBS, vancomycin]
Catheter CFU Exp#1 [1]: 0 CFU and 38,725,264 CFU | Catheter CFU Exp#2 [1]: 0 CFU (3×) and 217 CFU | Catheter CFU Exp#1 [2]: 64 CFU and 309 CFU and 973 CFU and 5,015 CFU and 5,108 CFU and 7,353,005 CFU | Catheter CFU Exp#2 [2]: 0 CFU and 63 CFU (2×) and 291 CFU and 6,517,926 CFU and 7,829,527 CFU | Catheter CFU Geo mean (Table 16, catheters with no outgrowth assigned value of 10): 3,368 CFU | Catheter CFU Geo mean (in vivo): 45 CFU
